Test results published in patent US20250049827A1, “A PHARMACEUTICAL COMPOSITION FOR THE TREATMENT OF OTIC INFECTIONS” (Intervet Inc., priority 2021, published 2025).
Read-outs that look alike come from different tables or passages of the source.

Columns and labels:
[1] = cited from earlier work
[2] = test system: gentamicin resistant Pseudomonas aeruginosa; settings: MIC studies performed in the US; cited from earlier work
[3] = Pilot ear depletion study: gentamicin concentration in ear wax; format: in vivo
Experimental: An ear depletion study was performed to assess gentamicin concentration in ear wax. It was determined that the gentamicin concentrations detected in the ear wax were high enough to be effective against gentamicin resistant Pseudomonas aeruginosa.

Q: Which solubility ([1]; in acetone and chloroform) does the source give for `C[C@@H]1C[C@H]2[C@@H]3CCC4=CC(=O)C=C[C@]4(C)[C@@]3(Cl)[C@@H](O)C[C@]2(C)[C@@]1(OC(=O)c1ccco1)C(=O)CCl` [Mometasone Furoate, 9,21-Dichloro-1 1 (beta), 17-dihydroxy-16 (alpha)-methylpregna-1,4-diene-3,20-dione 17-(2 Furoate)] here?
A: Its solubility is “soluble”.

Q: What about the solubility ([1]; in methanol, ethanol, and isopropanol) of the same compound?
A: Its solubility is “slightly soluble”.

Q: What about the solubility ([1]; in tetrahydro furan) of the same compound?
A: Its solubility is “freely soluble”.

Q: What about the solubility ([1]; in water) of the same compound?
A: Its solubility is “practically insoluble”.

Q: Which “highest MIC” value [2] does the source give for Gentamicin here?
A: Its value is 64 µg/mL.

Q: What about the “Total Gentamicin Concentration (mg/g) [Mean ± STD]” value (“Total Gentamicin Concentration” for short) ([3]; 24 hours post dose, Left ear) of the same compound?
A: The value was 11.51 ± 8.68 mg/g.

Q: What about the “Total Gentamicin Concentration” value ([3]; 24 hours post dose, Right ear) of the same compound?
A: The value was 11.96 ± 10.11 mg/g.

Q: What about the “Total Gentamicin Concentration” value ([3]; 72 hours post dose, Left ear) of the same compound?
A: The value was 8.15 ± 2.94 mg/g.

Q: What about the “Total Gentamicin Concentration” value ([3]; 72 hours post dose, Right ear) of the same compound?
A: Its value is 8.66 ± 5.00 mg/g.

Q: What about the “Total Gentamicin Concentration” value ([3]; 168 hours post dose, Left ear) of the same compound?
A: The value was 3.78 ± 1.55 mg/g.

Q: And the “Total Gentamicin Concentration” value ([3]; 168 hours post dose, Right ear)?
A: Its value is 3.97 ± 3.38 mg/g.

Q: What about the “Total Gentamicin Concentration” value ([3]; 240 hours post dose, Left ear) of the same compound?
A: The value was 1.87 ± 1.49 mg/g.

Q: What about the “Total Gentamicin Concentration” value ([3]; 240 hours post dose, Right ear) of the same compound?
A: Its value is 2.29 ± 1.36 mg/g.

Q: And the “Total Gentamicin Concentration” value ([3]; 336 hours post dose, Left ear)?
A: Its value is 1.46 ± 2.08 mg/g.

Q: What about the “Total Gentamicin Concentration” value ([3]; 336 hours post dose, Right ear) of the same compound?
A: Its value is 2.25 ± 2.44 mg/g.
